Experimental data taken from patent US8822517B2, “Arylosulfonamides for the treatment of CNS diseases” (Adamed SP. Z O.O., priority 2010, dated 2014).

Legend:
[1] = molecular target: T1, serotonine transporter (SERT) receptor (Homo sapiens, UniProt P31645); assay: Binding assay SERT (h), [3H]imipramine, CHO cells; conditions: read-out: SERT [%]
T1 construct: expressed in transfected cells; host or cells: CHO cells
Procedure, shortened: (§1)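 Radioligand displacement with compounds at 1×10^−6 M, detected by scintillation counting. Specific binding taken as total minus non-specific binding measured with excess unlabelled ligand.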

adrenergic α1 receptor = assay: Binding assay α1 (non-selective), [3H]prazosin, rat cerebral cortex; conditions: percent inhibition of control specific binding; compounds tested at 1×10^−6 M
Procedure, shortened: as §1

dopaminergic D3 receptor = dopaminergic D3 receptor (Homo sapiens, UniProt P35462); assay: Binding assay D3 (h), [3H]methyl-spiperone, CHO cells; design: expressed in transfected cells; host or cells: CHO cells; conditions: read-out: D3 [%]
Sequence of dopaminergic D3 receptor (P35462 whole entry): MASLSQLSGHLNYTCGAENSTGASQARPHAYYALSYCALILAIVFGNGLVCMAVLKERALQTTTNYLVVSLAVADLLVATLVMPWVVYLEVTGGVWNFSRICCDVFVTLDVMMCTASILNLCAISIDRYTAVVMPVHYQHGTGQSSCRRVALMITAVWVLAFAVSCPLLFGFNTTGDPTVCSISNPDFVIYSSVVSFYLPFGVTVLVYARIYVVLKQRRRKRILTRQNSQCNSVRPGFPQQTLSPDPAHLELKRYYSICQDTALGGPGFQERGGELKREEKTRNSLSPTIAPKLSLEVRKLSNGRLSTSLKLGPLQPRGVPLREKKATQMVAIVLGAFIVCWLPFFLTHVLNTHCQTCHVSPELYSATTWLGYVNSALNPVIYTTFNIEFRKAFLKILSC
Procedure, shortened: as §1

[2] = molecular target: serotoninergic 5-HT6 receptor (Homo sapiens, UniProt P50406); assay: Binding assay 5-HT6 (h), [3H]LSD, CHO cells; design: expressed in transfected cells; host or cells: CHO cells; conditions: read-out: 5-HT6
Sequence of serotoninergic 5-HT6 receptor (P50406 whole entry): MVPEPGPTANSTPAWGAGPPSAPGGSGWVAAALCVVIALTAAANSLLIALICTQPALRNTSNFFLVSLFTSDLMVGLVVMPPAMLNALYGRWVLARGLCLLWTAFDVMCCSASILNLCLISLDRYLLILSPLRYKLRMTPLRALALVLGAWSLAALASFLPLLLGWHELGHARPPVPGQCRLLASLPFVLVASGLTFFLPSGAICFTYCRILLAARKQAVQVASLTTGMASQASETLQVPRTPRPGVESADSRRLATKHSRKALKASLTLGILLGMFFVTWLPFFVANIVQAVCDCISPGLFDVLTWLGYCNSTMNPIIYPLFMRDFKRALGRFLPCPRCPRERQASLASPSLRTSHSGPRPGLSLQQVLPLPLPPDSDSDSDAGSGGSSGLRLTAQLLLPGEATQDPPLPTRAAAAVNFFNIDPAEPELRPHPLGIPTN
Procedure, shortened: as §1

[3] = molecular target: serotoninergic 5-HT7 receptor (Homo sapiens, UniProt P34969); assay: Binding assay 5-HT7 (h), [3H]LSD, CHO cells; design: expressed in transfected cells; host or cells: CHO cells; conditions: read-out: 5-HT7
Sequence of serotoninergic 5-HT7 receptor (P34969 whole entry): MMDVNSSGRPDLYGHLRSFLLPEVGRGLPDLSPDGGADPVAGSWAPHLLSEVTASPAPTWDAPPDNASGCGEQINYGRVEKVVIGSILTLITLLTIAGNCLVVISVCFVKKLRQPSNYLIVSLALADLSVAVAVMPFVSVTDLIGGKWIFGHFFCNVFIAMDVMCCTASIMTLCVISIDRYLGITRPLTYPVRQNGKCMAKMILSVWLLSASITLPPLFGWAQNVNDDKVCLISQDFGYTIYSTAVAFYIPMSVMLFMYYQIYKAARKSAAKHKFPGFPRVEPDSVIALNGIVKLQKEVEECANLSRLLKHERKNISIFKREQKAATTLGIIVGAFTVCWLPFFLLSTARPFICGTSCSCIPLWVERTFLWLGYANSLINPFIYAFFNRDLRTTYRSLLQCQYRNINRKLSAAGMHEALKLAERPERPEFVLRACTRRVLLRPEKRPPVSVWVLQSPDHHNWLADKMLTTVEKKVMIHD
Procedure, shortened: as §1

dopaminergic D2 receptor = dopaminergic D2 receptor (Homo sapiens, UniProt P14416); assay: Binding assay D2S (h), [3H]methyl-spiperone, HEK-293 cells; design: expressed in transfected cells; host or cells: HEK-293 cells; conditions: read-out: D2 [%]
Sequence of dopaminergic D2 receptor (P14416 1-414 isoform P14416-2): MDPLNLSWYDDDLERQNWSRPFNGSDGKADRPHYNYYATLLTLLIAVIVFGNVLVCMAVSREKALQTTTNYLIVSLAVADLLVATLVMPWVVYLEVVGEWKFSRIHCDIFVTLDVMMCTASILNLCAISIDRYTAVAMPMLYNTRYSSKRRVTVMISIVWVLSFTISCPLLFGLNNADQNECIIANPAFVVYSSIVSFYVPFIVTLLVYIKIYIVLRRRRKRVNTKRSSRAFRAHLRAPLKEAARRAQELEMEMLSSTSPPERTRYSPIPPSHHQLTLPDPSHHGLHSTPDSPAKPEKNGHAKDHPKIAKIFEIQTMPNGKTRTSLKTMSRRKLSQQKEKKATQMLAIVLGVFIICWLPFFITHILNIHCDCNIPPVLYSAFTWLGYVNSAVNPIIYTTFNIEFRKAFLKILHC
Procedure, shortened: as §1

[4] = molecular target: T2, serotoninergic 5-HT1A receptor (Homo sapiens, UniProt P08908); assay: Binding assay 5-HT1A (h), [3H]8-OH-DPAT, HEK-293 cells; design: expressed in transfected cells; host or cells: HEK-293 cells; conditions: read-out: 5-HT1A
T2 sequence (P08908 1-422): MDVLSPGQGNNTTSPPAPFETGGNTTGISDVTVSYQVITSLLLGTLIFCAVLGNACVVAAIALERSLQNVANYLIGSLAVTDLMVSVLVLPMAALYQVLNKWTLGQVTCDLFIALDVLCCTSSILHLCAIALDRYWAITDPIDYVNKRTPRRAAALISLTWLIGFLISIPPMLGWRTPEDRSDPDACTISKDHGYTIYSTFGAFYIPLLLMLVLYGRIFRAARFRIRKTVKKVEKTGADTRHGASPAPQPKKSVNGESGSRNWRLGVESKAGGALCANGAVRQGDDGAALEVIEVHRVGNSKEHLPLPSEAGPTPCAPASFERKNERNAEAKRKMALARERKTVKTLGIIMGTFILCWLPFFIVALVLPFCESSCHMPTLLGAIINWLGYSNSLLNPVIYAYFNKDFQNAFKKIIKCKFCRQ
Procedure, shortened: as §1

[5] = molecular target: serotoninergic 5-HT2A receptor (Homo sapiens, UniProt P28223); assay: Binding assay 5-HT2A (h), [3H]ketanserin, HEK-293 cells; design: expressed in transfected cells; host or cells: HEK-293 cells; conditions: read-out: 5-HT2A
Sequence of serotoninergic 5-HT2A receptor (P28223 whole entry): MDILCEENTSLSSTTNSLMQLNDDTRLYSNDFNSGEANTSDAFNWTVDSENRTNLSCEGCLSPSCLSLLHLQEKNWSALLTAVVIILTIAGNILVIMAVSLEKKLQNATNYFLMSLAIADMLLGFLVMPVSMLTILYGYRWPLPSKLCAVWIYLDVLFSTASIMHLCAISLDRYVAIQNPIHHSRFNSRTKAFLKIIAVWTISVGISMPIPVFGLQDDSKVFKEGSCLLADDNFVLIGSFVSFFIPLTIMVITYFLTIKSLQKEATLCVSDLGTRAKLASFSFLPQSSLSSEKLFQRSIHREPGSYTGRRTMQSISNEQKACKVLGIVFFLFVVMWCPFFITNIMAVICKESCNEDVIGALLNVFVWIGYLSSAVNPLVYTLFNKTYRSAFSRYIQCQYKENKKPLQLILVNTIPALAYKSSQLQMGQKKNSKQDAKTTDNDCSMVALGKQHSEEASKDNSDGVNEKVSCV
Procedure, shortened: as §1

T1 sequence (P31645 whole entry): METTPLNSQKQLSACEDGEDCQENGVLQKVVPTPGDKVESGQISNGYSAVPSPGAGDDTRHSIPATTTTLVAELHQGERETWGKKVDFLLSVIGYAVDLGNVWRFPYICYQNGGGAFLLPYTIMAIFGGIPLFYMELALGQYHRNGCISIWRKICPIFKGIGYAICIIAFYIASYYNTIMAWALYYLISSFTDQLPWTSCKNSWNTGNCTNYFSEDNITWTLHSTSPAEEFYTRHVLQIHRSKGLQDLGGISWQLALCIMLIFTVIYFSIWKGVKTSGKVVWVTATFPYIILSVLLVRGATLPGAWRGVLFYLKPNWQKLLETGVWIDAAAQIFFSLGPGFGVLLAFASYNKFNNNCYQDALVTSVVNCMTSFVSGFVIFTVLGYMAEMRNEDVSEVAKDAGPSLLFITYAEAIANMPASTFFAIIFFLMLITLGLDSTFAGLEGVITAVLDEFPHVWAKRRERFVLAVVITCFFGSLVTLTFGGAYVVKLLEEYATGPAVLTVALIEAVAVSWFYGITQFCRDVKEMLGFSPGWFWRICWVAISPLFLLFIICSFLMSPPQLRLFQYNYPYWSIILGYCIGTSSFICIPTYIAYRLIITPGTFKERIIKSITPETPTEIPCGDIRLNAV

SMILES | inhibition at 1 µM [1] | α1 [%] (adrenergic α1 receptor) | inhibition at 1 µM (dopaminergic D3 receptor) | inhibition at 1 µM [2] | inhibition at 1 µM [3] | inhibition at 1 µM (dopaminergic D2 receptor) | inhibition at 1 µM [4] | inhibition at 1 µM [5]
O=S(=O)(NCCCCN1CCN(c2cccc3c2OCCO3)CC1)c1cccc(Br)c1 [Compound 391, 3-Bromo-N-[4-[4-(2,3-dihydro-1,4-benzodioxin-5-yl)piperazin-1-yl]butyl]benzenesulphonamide] | -28% | 90% | 85% | 19% | 92% | 76% | 97% | 68%
O=S(=O)(NCCCCN1CCN(c2cccc3c2OCCO3)CC1)c1ccc(F)c(Cl)c1 [Compound 392, 3-Chloro-N-[4-[4-(2,3-dihydro-1,4-benzodioxin-5-yl)piperazin-1-yl]butyl]-4-fluorobenzenesulphonamide] | -11% | 99% | 93% | 7% | 91% | 57% | 100% | 64%
O=S(=O)(NCCCCN1CCN(c2cccc3c2OCCO3)CC1)c1cccc(O)c1 [Compound 393, N-[4-[4-(2,3-Dihydro-1,4-benzodioxin-5-yl)piperazin-1-yl]butyl]-3-hydroxybenzenesulphonamide] | -7% | 91% | 92% | 9% | 91% | 46% | 93% | 47%
COc1cccc(S(=O)(=O)NCCCCN2CCN(c3cccc4c3OCCO4)CC2)c1 [Compound 394, N-[4-[4-(2,3-Dihydro-1,4-benzodioxin-5-yl)piperazin-1-yl]butyl]-3-methoxybenzenesulphonamide] | 12% | 92% | 86% | 18% | 98% | 72% | 95% | 71%
Cc1cccc(S(=O)(=O)NCCCCN2CCN(c3cccc4c3OCCO4)CC2)c1 [Compound 395, N-[4-[4-(2,3-Dihydro-1,4-benzodioxin-5-yl)piperazin-1-yl]butyl]-3-methylbenzenesulphonamide] | 69% | 92% | 87% | -35% | 83% | 61% | 75% | 61%
O=S(=O)(NCCCCN1CCN(c2cccc3c2OCCO3)CC1)c1ccc(-c2ccccc2)cc1 [Compound 396, N-[4-[4-(2,3-Dihydro-1,4-benzodioxin-5-yl)piperazin-1-yl]butyl]-4-phenylbenzenesulphonamide] | 16% | 84% | 86% | 31% | 88% | 68% | 85% | 58%
O=S(=O)(NCCCCN1CCN(c2cccc3c2OCCO3)CC1)c1ccc(Cl)s1 [Compound 398, 5-Chloro-N-[4-[4-(2,3-dihydro-1,4-benzodioxin-5-yl)piperazin-1-yl]butyl]thiophene-2-sulphonamide] | -7% | 97% | 90% | 3% | 97% | 73% | 107% | 38%
O=S(=O)(NCCCCN1CCN(c2cccc3c2OCCO3)CC1)c1cc2ccccc2s1 [Compound 399, N-[4-[4-(2,3-Dihydro-1,4-benzodioxin-5-yl)piperazin-1-yl]butyl]benzothiophene-2-sulphonamide] | -22% | 99% | 92% | 23% | 96% | 79% | 99% | 82%
O=S(=O)(NCCCCN1CCN(c2cccc3c2OCCO3)CC1)c1csc2ccccc12 [Compound 400, N-[4-[4-(2,3-Dihydro-1,4-benzodioxin-5-yl)piperazin-1-yl]butyl]benzothiophene-3-sulphonamide] | 30% | 94% | 88% | 9% | 95% | 83% | 100% | 66%
O=S(=O)(NCCCCN1CCN(c2cccc3c2OCCO3)CC1)c1cc2ccc(Cl)cc2s1 [Compound 401, 6-Chloro-N-[4-[4-(2,3-dihydro-1,4-benzodioxin-5-yl)piperazin-1-yl]butyl]benzothiophene-2-sulphonamide] | -8% | 90% | 95% | 27% | 91% | 84% | 103% | 79%
O=S(=O)(NCCCCN1CCN(c2cccc3c2OCCO3)CC1)c1ccc2cn[nH]c2c1 [Compound 402, N-[4-[4-(2,3-Dihydro-1,4-benzodioxin-5-yl)piperazin-1-yl]butyl]-1H-indazole-6-sulphonamide] | 16% | 94% | 89% | 1% | 100% | 68% | 102% | 76%
O=c1[nH]c2ccc(S(=O)(=O)NCCCCN3CCN(c4cccc5c4OCCO5)CC3)cc2o1 [Compound 403, N-[4-[4-(2,3-Dihydro-1,4-benzodioxin-5-yl)piperazin-1-yl]butyl]-2-oxo-3H-1,3-benzoxazole-6-sulphonamide] | -9% | 98% | 99% | -21% | 95% | 85% | 98% | 64%
O=S(=O)(NCCCCN1CCN(c2cccc3c2OCCO3)CC1)c1ccc2c(c1)OCO2 [Compound 404, N-[4-[4-(2,3-Dihydro-1,4-benzodioxin-5-yl)piperazin-1-yl]butyl]-1,3-benzodioxole-5-sulphonamide] | -9% | 93% | 92% | 4% | 96% | 60% | 97% | 55%
O=S(=O)(NCCCN1CCN(c2cccc3c2OCCO3)CC1)c1cccc2ccccc12 [Compound 405, N-[3-[4-(2,3-Dihydro-1,4-benzodioxin-5-yl)piperazin-1-yl]propyl]naphthalene-1-sulphonamide] | -5% | 82% | 62% | 53% | 93% | 68% | 97% | 74%
O=S(=O)(NCCCN1CCN(c2cccc3c2OCCO3)CC1)c1ccc2ccccc2c1 [Compound 406, N-[3-[4-(2,3-Dihydro-1,4-benzodioxin-5-yl)piperazin-1-yl]propyl]naphthalene-2-sulphonamide] | 10% | 77% | 54% | 54% | 92% | 59% | 99% | 28%
O=S(=O)(NCCCN1CCN(c2cccc3c2OCCO3)CC1)c1ccc2cc(Cl)ccc2c1 [Compound 407, 6-Chloro-N-[3-[4-(2,3-dihydro-1,4-benzodioxin-5-yl)piperazin-1-yl]propyl]naphthalene-2-sulphonamide] | -2% | 72% | 84% | 37% | 102% | 58% | 88% | 50%
O=S(=O)(NCCCN1CCN(c2cccc3c2OCCO3)CC1)c1ccc(F)cc1 [Compound 408, N-[3-[4-(2,3-Dihydro-1,4-benzodioxin-5-yl)piperazin-1-yl]propyl]-4-fluorobenzenesulphonamide] | -18% | 70% | 70% | 35% | 83% | 40% | 101% | -50%
